Measurements: article PMC11272598, “RG7774 (Vicasinabin), an orally bioavailable cannabinoid receptor 2 (CB2R) agonist, decreases retinal vascular permeability, leukocyte adhesion, and ocular inflammation in animal models” (Frontiers in Pharmacology, 2024)
Values joined by “and” are separate entries in the source; they are usually repeats but may differ in a detail not shown here. Equal values may be shown once.

Legend:
human CB2R [1] = target: T1, human CB2R (Homo sapiens, UniProt P34972); test: Forskolin-stimulated cAMP assay in CHO cells; type: cell-based
T1 construct: bgal (beta-galactosidase fragment of the PathHunter system); host or cells: CHO-K1
T1 sequence (P34972 whole entry, the tested form may be a part): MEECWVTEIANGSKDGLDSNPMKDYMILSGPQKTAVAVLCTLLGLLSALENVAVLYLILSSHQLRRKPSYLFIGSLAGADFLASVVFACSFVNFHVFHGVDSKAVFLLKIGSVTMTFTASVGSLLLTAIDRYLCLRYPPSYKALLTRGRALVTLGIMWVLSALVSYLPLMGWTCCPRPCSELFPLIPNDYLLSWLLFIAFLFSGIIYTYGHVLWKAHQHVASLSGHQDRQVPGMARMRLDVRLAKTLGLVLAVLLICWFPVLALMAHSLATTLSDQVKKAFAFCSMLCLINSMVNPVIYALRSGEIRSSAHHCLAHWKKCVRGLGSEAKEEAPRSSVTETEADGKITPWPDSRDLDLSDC
Description: (§1) The inhibitory effects of RG7774 on forskolin-stimulated accumulation of cAMP were determined using the cAMP-Nano-TRF detection kit (Roche Diagnostics, Penzberg, Germany), as previously described ([Porter et al., 2019]). CHOK1hCB1_bgal, CHOK1mCB2_bgal, and CHOK1hCB2_bgal cells (DiscoveRx, Fremont, CA, United States) were seeded 17–24 h prior to the experiment at a density of 3 × 10^4 cells per well in a black 96-well plate with a flat, clear bottom (Corning, Wiesbaden, Germany) prior to incubating in 5% CO2 at 37°C in a humidified incubator. The growth medium was exchanged with Krebs Ringer bicarbonate buffer containing 1 mM IBMX and 0.1% fatty acid-free BSA and incubated at 30°C for 1 h. RG7774 or positive control (CP55940) (1 µM) was added to a 0.1 mL final assay volume and the mixture was incubated at 30°C for 30 min. The assay was stopped by adding 50 μL 3x lysis reagent and shaking for 2 h at RT. The time-resolved energy transfer was measured using an LF502 Nanoscan FLT (IOM, Berlin, Germany) equipped with a laser excitation source. cAMP content was determined from a standard curve spanning 10–0.13 nM cAMP. Efficacies were expressed as a percentage relative to the positive control.

recombinant mouse CB2R = target: T2, recombinant mouse CB2R (Mus musculus, UniProt P47936); test: Forskolin-stimulated cAMP assay in CHO cells; type: cell-based
T2 construct: bgal (beta-galactosidase fragment of the PathHunter system); host or cells: CHO-K1
T2 sequence (P47936 whole entry, the tested form may be a part): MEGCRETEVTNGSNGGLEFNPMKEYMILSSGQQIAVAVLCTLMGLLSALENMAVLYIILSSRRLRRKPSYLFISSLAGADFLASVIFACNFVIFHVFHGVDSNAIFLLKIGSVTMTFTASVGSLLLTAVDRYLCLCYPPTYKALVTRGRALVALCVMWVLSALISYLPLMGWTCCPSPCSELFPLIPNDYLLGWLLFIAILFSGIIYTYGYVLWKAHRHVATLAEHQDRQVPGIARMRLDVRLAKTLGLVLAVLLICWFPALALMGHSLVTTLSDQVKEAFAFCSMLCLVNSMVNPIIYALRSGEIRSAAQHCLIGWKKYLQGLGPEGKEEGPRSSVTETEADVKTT
Description: as §1

human CB2R [2] = target: T1, human CB2R; test: PathHunter β-arrestin recruitment assay in CHO cells; type: cell-based
Description: Assays were carried out using the PathHunter hCB2_bgal CHOK1 β-arrestin recruitment assay kit (DiscoveRx, Fremont, CA, United States) as previously described ([Soethoudt et al., 2017]). A total of 5,000 cells per well were seeded in 384-well plates (PerkinElmer, Waltham, MA, United States) containing 20 μL cell culture medium and incubated for 16–18 h at 37°C in 5% CO2. Cells were stimulated with RG7774 and incubated for 1.5 h at 37°C in 5% CO2. As the RG7774 stock solution was 100% DMSO, the final concentration of DMSO per assay point was diluted to 0.1%. PathHunter Detection mixture was used to determine β-galactosidase enzyme activity according to the manufacturer’s protocol. Detection mixture (12 µL per well) was added, and the plate was incubated for 1 h in the dark at RT. Chemiluminescence (indicated as relative light units) was measured on an EnVision multilabel plate reader (PerkinElmer, Waltham, MA, United States).

Microsomal clearance = type: in vitro ADME; settings: pH 7.4
Description: Commercially-available ultra-pooled microsome preparations from human (150 different donors) (BD UltraPool HLM 150, Beckton Dickinson, Japan) or mouse liver tissues (Beckton Dickinson) were incubated in 96-deep-well plates containing 0.1 M phosphate buffer (pH 7.4) at 37 °C on a TECAN liquid handling system equipped with Teleshake shakers and a warming device (Tecan Group Ltd., Switzerland). The NADPH regenerating system consisted of 30 mM glucose-6-phosphate disodium salt hydrate, 10 mM NADP, 30 mM MgCl2 × 6 H2O, and 5 mg/mL glucose-6-phosphate dehydrogenase (Roche Diagnostics, IN, USA) in 0.1 M potassium phosphate buffer (pH 7.4). The microsome mixture (0.5 mg/mL) was incubated with 1 μM RG7774 in 96-well plates at 37 °C. After 1, 3, 6, 9, 15, 25, 35, and 45 min, aliquots of the incubations (40 μL) were removed and reactions were quenched with 1:3 (v/v) acetonitrile containing internal standards. Samples were cooled, centrifuged, and analyzed by liquid chromatography-mass spectroscopy (LC-MS)/mass spectroscopy (MS). Log peak area ratios (test compound peak area/internal standard peak area) were plotted against incubation time with a linear fit. The calculated slope was used to determine the intrinsic clearance: CLint (μL/min/mg protein) = –slope (min–1) × 1000/protein concentration, mg/mL.

CYP2C19 = target: T3, CYP2C19 (Homo sapiens, UniProt P33261); test: CYP inhibition assay; type: in vitro ADME; settings: 2C19, human liver microsomes
T3 construct: pooled human liver microsomes, CYP probe substrate around the reported Km; from tissue; host or cells: pooled human liver microsomes
T3 sequence (P33261 whole entry): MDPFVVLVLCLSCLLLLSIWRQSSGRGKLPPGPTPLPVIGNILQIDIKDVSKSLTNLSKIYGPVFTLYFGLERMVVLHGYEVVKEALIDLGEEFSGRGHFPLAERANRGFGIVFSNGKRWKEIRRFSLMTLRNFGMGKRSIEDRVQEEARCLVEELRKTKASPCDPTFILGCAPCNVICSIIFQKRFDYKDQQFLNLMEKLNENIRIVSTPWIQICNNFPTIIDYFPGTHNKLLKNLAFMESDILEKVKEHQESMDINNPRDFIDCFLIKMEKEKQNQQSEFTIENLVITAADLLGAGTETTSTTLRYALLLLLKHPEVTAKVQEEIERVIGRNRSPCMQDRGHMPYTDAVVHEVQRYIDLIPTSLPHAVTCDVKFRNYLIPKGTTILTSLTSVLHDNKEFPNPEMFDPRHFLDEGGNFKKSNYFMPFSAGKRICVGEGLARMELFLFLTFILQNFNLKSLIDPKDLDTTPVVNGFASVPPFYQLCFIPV
Description: (§2) CYP assays were conducted as previously described to determine the risk of drug-drug interactions between test compounds and drugs known to be metabolized via different CYPs. […] Conditions were optimized to achieve the linear metabolic rate for the probe substrate reactions. Samples were analyzed by LC-MS/MS. Assays generate two endpoints: IC50 (μM) and percent inhibition at the highest acceptable test concentration (typically 50 μM; lower if highest concentration data are rejected due to insolubility).

CYP2C8 = target: T4, CYP2C8 (Homo sapiens, UniProt P10632); test: CYP inhibition assay; type: in vitro ADME; settings: 2C8, human liver microsomes
T4 construct: pooled human liver microsomes, CYP probe substrate around the reported Km; from tissue; host or cells: pooled human liver microsomes
T4 sequence (P10632 whole entry): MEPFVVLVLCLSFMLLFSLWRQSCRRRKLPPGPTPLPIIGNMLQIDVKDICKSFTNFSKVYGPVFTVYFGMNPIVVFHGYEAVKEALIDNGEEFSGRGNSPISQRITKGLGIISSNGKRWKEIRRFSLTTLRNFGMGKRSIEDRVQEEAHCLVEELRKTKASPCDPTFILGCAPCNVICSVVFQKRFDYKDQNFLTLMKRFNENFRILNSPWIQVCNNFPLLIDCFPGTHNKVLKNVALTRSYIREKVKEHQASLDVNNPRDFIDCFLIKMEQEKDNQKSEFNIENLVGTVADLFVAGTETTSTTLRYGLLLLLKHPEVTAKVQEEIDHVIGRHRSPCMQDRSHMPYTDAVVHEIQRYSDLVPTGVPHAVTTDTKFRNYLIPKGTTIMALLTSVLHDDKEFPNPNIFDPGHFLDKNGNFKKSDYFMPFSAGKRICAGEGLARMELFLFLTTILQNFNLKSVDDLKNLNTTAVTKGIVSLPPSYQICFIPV
Description: as §2

CYP3A4 = target: T5, CYP3A4 (Homo sapiens, UniProt P08684); test: CYP inhibition assay; type: in vitro ADME; settings: 3A4, human liver microsomes
T5 construct: pooled human liver microsomes, CYP probe substrate around the reported Km; from tissue; host or cells: pooled human liver microsomes
T5 sequence (P08684 whole entry): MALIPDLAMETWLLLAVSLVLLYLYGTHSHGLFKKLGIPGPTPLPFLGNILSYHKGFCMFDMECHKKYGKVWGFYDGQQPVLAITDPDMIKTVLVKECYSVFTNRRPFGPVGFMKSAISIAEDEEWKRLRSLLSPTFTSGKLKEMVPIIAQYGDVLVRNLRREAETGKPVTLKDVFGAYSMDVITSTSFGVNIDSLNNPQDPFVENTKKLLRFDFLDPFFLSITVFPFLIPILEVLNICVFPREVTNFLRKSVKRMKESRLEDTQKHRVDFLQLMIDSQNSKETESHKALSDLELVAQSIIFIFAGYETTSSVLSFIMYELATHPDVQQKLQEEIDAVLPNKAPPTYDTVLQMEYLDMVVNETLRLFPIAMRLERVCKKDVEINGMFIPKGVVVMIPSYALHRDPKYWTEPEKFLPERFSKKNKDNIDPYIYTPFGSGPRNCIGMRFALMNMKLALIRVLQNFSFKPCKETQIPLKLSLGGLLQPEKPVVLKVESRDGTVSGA
Description: as §2

CYP2C9 = target: T6, CYP2C9 (Homo sapiens, UniProt P11712); test: CYP inhibition assay; type: in vitro ADME; settings: 2C9, human liver microsomes
T6 construct: pooled human liver microsomes, CYP probe substrate around the reported Km; from tissue; host or cells: pooled human liver microsomes
T6 sequence (P11712 whole entry): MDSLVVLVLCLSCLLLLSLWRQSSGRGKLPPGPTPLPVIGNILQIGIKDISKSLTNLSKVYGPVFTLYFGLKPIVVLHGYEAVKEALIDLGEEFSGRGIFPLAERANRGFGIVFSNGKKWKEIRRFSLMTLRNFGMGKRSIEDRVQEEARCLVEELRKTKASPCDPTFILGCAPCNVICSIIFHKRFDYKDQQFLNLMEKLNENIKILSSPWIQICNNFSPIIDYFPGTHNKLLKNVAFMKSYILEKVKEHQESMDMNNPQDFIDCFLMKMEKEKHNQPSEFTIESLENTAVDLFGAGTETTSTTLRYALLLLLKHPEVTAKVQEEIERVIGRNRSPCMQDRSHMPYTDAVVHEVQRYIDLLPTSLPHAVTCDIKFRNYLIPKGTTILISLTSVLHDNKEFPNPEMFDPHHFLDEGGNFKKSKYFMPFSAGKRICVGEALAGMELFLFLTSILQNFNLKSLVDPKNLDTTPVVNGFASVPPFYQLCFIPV
Description: as §2

CYP1A2 = target: T7, CYP1A2 (Homo sapiens, UniProt P05177); test: CYP inhibition assay; type: in vitro ADME; settings: 1A2, human liver microsomes
T7 construct: pooled human liver microsomes, CYP probe substrate around the reported Km; from tissue; host or cells: pooled human liver microsomes
T7 sequence (P05177 whole entry): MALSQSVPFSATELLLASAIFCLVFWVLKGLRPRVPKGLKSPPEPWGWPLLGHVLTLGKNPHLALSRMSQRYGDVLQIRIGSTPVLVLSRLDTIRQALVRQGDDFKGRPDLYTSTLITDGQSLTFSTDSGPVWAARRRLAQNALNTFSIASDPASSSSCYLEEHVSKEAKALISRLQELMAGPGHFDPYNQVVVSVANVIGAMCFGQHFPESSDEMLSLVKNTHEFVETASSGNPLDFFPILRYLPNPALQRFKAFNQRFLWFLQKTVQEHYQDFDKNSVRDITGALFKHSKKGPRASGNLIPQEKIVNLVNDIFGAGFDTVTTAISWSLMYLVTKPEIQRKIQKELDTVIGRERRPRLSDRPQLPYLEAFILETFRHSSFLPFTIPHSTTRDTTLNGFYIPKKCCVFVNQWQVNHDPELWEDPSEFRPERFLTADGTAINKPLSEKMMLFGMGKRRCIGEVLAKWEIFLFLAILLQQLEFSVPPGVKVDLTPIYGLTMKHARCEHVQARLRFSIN
Description: as §2

CYP2D6 = target: T8, CYP2D6 (Homo sapiens, UniProt P10635); test: CYP inhibition assay; type: in vitro ADME; settings: 2D6, human liver microsomes
T8 construct: pooled human liver microsomes, CYP probe substrate around the reported Km; from tissue; host or cells: pooled human liver microsomes
T8 sequence (P10635 whole entry): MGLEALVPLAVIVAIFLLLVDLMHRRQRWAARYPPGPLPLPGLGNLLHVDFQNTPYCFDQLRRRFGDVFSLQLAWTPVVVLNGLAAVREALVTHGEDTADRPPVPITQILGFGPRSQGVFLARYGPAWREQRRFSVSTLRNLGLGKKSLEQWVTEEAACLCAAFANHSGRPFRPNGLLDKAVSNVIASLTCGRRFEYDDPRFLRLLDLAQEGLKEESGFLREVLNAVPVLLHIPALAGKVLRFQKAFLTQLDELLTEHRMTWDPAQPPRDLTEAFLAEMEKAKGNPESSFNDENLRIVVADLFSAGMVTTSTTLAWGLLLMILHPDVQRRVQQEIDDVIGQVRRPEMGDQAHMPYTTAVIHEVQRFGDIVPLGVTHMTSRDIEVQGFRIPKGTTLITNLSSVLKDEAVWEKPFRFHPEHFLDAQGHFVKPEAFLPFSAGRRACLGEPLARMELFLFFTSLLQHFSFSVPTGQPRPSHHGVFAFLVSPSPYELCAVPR
Description: as §2

SMILES: Cn1nnnc1Cn1nnc2c(N3CC[C@H](O)C3)nc(C(C)(C)C)nc21 [RG7774, (S)-1-(5-tert-butyl-3-[(1-methyl-1H-tetrazol-5-yl)methyl]-3H-[1,2,3]triazolo[4,5-d]pyrimidin-7-yl)pyrrolidin-3-ol]
- EC50 (human CB2R [1]; EC50, inhibition of forskolin-induced cAMP, human CB2R, recombinant CHO cells): 2.8 nM and 2.81 nM
- functional affinity for human CB2R over CB1R (human CB2R [1]; cAMP assays): > 3,600 fold
- efficacy compared to maximum efficacy of CP55940, human CB2R (human CB2R [1]; cAMP, CHO cells): full agonist
- EC50 (recombinant mouse CB2R): 2.6 ± 0.14 nM
- efficacy compared to maximum efficacy of CP55940, mouse CB2R (recombinant mouse CB2R; cAMP, CHO cells): full agonist
- EC50 (human CB2R [2]): 99.7 ± 5.72 nM
- microsomal CLint at 1 µM (Microsomal clearance; human): 21.7 µL/min/mg
- microsomal CLint at 1 µM (Microsomal clearance; mouse, mouse liver microsomes): 15 µL/min/mg
- microsomal CLint at 1 µM (Microsomal clearance; rat, rat microsomes): 25 µL/min/mg
- IC50 (CYP2C19): > 50 µM
- IC50 (CYP2C8): > 50 µM
- IC50 (CYP3A4): > 50 µM
- IC50 (CYP2C9): 29 µM
- IC50 (CYP1A2): > 50 µM
- IC50 (CYP2D6): > 50 µM
